Data from patent publication US20060241066A1, “Decoy composition for treating and preventing inflammatory disease” (priority 2002, published 2006).
“Also recorded” adds a separate entry of the source.

What was measured:
[1] = system: type II collagen arthritis model in apes; assay: Type II collagen arthritis model in apes, intraarticular administration; assay type: in vivo, apes (macaque); conditions: for effective ratio: NF-κB decoy 10 mg/joint at two-week intervals, type II collagen articulitis model in apes; for change of the joints on X-ray photographs (synovial inflammation, joint swelling, joint cartilage, osteoclasis), FIG. 1: simian collagen arthritis model, radiograph
[2] = system: osteoarthritis rat model; assay: Osteoarthritis model using rats, intraarticular administration, joint section slides (FIG. 2); conditions: listed as NF-κB decoys

| Substance | effective ratio [1] | change of the joints on X-ray photographs (synovial inflammation, joint swelling, joint cartilage, osteoclasis), FIG. 1 [1] | change of the joints on X-ray photographs (synovial inflammation, joint swelling, joint cartilage, osteoclasis), FIG. 1 ([1]; listed as scrambled decoys) | change of the joints on X-ray photographs (synovial inflammation, joint swelling, joint cartilage, osteoclasis), FIG. 1 ([1]; listed as decoy of the present invention) | change of the joints on X-ray photographs (synovial inflammation, joint swelling, joint cartilage, osteoclasis), FIG. 1 ([1]; listed as decoys of the present invention) | effect on joint (section slide photographs), FIG. 2 ([2]; administration of 10 mg of decoy) | effect on joint (section slide photographs), FIG. 2 ([2]; administration of 30 mg of decoy) | effect compared with that of steroid, FIG. 2 ([2]; decoy 10 mg and 30 mg versus steroid) |
| --- | --- | --- | --- | --- | --- | --- | --- | --- |
| 5′-CATGTCGTCACTGCGCTCAT-3′ (SEQ ID NO: 7); and 5′-ATGAGCGCAGTGACGACATG-3′ (SEQ ID NO: 8) (listed as DNA, chemistry not given here) [scrambled decoy, reference compound] | 1/4 | no effects | No effects | – | – | – | – | – |
| 5′-CCTTGAAGGGATTTCCCTCC-3′ (SEQ ID NO: 1) (chemistry not given here) [NF-κB decoy] | 3/4 | – | – | significant improvements | significant improvement | significant improvement; also recorded: significant effects | eliminated the joint inflammation; also recorded: destroyed the articulitis | exceeded that of steroids; also recorded: beyond those attained by the steroid |
